Measured values from paper PMC7224190, “Pharmacological inhibition of PRMT7 links arginine monomethylation to the cellular stress response” (Nature Communications, 2020).

What was measured:
Test in all cases: biochemical
Set-up in all cases: radiometric methyltransferase selectivity assay with tritiated SAM, per cent activity
Details in all cases: read-out: % of control remaining
PRMT9 = molecular target: T1, PRMT9 (Homo sapiens, UniProt Q6P2P2)
T1 sequence (Q6P2P2 1-845): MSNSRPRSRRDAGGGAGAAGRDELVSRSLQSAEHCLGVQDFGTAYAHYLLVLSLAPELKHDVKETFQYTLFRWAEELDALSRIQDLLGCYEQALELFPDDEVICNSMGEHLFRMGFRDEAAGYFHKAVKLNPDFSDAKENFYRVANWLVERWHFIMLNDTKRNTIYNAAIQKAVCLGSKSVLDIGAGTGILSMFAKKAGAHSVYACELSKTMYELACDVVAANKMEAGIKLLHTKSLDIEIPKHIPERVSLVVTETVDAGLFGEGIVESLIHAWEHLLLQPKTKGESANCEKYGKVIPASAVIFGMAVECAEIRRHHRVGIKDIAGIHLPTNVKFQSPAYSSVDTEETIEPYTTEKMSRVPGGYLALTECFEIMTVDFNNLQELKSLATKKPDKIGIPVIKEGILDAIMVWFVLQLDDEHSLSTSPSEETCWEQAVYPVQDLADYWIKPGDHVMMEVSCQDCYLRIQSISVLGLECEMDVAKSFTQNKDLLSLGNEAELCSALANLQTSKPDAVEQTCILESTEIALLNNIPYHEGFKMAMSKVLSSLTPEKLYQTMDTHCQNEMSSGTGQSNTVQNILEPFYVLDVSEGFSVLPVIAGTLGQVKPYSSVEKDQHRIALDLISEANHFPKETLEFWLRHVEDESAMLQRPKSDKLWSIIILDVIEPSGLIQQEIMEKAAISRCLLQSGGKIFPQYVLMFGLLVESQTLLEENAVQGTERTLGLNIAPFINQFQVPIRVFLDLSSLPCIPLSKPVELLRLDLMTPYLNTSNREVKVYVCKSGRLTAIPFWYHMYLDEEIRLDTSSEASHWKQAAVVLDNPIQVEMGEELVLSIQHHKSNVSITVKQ
Procedure, shortened: (§1)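 Radiometric methyltransferase assays with ³H-SAM and substrate near apparent Km, compound tested at 1 and 10 μM. Methyl incorporation into biotinylated substrate read by scintillation proximity after guanidine quench; no-compound = 100%, no-enzyme = 0% activity.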

PRMT4 = molecular target: T2, PRMT4 (Homo sapiens, UniProt Q86X55)
T2 construct: gene CARM1
T2 sequence (Q86X55 1-608): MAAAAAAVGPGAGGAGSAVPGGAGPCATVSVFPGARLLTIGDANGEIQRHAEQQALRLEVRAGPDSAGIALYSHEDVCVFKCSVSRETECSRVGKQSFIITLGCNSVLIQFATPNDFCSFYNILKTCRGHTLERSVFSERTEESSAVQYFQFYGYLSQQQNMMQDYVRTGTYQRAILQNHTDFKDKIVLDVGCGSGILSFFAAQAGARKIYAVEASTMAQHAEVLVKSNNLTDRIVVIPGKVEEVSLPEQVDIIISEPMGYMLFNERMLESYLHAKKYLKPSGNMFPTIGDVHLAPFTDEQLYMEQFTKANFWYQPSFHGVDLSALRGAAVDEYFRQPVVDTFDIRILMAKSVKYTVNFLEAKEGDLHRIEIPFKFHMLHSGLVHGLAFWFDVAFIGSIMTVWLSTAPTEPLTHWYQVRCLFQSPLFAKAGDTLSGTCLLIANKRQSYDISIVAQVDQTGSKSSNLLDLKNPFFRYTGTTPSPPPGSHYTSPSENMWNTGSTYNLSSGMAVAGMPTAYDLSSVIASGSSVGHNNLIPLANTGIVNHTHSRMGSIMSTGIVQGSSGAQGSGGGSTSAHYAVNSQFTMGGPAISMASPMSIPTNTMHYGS
Procedure, shortened: as §1

METTL3-14 = METTL3-14 (Homo sapiens, UniProt Q86U44)
Procedure, shortened: as §1

MLL3 = molecular target: T3, MLL3 (Homo sapiens, UniProt Q8NEZ4)
T3 construct: gene KMT2C
Procedure, shortened: as §1

SUV420H1 = molecular target: T4, SUV420H1 (Homo sapiens, UniProt Q4FZB7)
T4 construct: gene KMT5B
Procedure, shortened: as §1

T3 sequence (Q8NEZ4 whole entry): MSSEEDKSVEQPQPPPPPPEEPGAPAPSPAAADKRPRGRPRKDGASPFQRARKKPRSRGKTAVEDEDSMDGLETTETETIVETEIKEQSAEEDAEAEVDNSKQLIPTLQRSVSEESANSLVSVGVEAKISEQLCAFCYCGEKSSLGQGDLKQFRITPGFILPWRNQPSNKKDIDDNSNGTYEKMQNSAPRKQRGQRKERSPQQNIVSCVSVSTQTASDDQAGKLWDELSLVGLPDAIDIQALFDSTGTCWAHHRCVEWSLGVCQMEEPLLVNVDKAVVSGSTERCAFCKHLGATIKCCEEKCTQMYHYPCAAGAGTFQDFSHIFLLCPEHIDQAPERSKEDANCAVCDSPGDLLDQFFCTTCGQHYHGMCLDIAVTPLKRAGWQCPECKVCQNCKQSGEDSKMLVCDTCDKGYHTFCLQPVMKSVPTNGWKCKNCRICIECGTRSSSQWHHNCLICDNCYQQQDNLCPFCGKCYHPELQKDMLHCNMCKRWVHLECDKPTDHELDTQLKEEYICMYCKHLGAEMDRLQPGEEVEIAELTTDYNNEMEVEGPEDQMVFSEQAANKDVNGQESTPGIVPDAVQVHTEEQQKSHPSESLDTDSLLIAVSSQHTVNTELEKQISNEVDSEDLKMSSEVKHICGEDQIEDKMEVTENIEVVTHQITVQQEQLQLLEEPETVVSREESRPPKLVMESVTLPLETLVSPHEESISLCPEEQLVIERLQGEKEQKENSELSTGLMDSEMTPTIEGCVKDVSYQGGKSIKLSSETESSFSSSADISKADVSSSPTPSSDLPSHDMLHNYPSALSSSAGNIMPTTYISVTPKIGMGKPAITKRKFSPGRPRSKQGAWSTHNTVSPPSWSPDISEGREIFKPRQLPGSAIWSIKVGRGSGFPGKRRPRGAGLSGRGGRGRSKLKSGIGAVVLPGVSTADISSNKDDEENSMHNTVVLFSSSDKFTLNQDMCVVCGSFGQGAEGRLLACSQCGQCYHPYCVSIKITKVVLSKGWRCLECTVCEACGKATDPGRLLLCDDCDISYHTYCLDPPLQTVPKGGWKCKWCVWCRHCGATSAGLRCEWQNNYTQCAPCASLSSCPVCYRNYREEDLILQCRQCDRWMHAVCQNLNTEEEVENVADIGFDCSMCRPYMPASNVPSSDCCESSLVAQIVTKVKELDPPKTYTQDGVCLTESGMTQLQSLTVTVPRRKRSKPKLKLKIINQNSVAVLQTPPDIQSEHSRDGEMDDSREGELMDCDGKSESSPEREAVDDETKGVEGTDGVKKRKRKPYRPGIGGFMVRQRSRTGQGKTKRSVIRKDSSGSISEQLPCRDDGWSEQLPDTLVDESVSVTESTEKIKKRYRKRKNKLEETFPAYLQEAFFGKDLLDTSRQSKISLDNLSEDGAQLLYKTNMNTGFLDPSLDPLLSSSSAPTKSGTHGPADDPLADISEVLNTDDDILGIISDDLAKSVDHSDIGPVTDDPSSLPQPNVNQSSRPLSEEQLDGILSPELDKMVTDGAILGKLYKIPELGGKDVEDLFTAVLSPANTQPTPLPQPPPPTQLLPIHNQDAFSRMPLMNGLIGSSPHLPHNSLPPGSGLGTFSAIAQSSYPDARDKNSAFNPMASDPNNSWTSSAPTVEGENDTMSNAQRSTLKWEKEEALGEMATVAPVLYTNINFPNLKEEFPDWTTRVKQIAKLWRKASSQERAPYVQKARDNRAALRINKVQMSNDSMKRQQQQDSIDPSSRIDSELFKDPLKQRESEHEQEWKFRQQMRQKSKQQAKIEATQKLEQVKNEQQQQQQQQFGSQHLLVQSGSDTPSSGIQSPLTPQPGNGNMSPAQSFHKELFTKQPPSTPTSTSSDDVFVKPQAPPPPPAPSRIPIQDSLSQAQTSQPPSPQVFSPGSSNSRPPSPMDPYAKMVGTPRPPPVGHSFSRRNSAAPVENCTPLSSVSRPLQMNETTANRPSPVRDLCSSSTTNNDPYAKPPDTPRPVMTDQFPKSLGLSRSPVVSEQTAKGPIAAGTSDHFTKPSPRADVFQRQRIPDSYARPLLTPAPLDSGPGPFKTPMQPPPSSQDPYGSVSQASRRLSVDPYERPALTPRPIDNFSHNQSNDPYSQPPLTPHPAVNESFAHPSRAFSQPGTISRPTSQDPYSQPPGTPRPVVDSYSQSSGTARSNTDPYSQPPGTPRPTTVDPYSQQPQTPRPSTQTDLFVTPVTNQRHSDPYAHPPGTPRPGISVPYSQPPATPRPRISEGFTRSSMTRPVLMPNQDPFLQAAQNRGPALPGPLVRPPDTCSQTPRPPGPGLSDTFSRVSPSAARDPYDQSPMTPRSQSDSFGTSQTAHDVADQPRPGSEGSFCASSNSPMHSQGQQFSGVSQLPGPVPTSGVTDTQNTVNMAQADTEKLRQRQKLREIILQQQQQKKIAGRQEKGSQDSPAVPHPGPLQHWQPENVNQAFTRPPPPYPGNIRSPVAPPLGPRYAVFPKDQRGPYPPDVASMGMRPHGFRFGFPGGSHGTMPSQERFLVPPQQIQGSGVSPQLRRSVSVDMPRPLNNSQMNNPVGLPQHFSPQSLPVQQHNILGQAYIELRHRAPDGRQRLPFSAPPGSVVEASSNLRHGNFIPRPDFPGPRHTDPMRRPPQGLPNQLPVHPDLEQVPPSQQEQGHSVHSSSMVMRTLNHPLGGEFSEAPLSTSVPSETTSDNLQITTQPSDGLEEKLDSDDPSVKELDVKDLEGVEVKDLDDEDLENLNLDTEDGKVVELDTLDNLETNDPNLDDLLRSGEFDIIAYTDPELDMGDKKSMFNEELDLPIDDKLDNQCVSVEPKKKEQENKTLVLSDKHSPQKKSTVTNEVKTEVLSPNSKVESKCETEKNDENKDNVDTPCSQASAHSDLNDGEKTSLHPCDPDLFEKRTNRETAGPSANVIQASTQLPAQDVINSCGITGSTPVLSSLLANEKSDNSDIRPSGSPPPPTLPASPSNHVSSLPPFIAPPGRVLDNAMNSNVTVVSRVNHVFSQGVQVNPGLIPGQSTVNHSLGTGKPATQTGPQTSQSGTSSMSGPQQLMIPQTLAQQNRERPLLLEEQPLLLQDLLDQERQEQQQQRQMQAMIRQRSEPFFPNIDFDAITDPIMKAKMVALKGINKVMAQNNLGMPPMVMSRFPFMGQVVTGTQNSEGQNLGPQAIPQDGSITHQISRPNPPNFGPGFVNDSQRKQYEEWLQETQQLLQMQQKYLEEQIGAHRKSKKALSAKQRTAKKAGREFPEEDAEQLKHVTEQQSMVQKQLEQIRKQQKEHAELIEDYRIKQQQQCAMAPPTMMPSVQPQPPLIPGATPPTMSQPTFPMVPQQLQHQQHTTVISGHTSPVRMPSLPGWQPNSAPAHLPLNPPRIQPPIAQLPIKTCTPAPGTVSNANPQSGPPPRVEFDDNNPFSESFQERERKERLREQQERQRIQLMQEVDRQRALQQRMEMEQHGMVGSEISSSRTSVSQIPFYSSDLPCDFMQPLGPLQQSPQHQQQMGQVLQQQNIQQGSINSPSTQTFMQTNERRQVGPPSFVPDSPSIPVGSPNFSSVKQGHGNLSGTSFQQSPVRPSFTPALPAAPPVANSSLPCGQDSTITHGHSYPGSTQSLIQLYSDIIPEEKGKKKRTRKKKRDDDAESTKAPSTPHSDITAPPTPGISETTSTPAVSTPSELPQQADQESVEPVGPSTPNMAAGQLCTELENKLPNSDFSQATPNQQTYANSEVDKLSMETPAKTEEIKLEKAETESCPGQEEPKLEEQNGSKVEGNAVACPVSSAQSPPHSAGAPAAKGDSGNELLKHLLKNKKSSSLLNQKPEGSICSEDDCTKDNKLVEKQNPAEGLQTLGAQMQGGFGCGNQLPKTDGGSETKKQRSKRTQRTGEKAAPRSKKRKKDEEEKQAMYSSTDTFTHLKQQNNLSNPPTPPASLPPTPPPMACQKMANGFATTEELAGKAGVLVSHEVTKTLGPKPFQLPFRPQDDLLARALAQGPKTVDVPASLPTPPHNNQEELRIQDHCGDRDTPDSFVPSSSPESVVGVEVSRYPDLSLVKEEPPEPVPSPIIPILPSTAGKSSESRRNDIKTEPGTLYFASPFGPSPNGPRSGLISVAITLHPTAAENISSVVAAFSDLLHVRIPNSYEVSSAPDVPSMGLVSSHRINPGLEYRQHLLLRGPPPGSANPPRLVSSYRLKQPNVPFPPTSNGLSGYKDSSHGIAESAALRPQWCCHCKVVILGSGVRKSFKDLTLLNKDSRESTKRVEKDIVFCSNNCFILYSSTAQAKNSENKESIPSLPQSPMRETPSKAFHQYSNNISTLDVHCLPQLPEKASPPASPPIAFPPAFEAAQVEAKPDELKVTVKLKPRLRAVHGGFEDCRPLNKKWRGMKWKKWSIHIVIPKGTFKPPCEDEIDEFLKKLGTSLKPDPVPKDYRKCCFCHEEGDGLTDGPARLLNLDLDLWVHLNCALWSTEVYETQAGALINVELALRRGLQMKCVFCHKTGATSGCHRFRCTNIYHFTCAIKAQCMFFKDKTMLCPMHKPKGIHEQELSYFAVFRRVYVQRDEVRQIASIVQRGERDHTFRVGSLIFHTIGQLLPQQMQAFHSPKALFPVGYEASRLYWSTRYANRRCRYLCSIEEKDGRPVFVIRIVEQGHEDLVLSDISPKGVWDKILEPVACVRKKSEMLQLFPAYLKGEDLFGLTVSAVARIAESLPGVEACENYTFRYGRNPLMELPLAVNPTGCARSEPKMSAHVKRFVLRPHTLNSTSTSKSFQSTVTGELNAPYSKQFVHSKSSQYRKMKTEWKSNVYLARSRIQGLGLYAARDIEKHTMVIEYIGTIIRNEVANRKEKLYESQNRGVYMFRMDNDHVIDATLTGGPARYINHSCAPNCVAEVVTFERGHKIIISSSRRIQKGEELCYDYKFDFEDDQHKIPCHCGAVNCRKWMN

| Structure (SMILES) | remaining activity at 1 µM (PRMT9) | remaining activity at 10 µM (PRMT9) | remaining activity at 1 µM (PRMT4) | remaining activity at 10 µM (PRMT4) | remaining activity at 1 µM (METTL3-14) | remaining activity at 10 µM (METTL3-14) | remaining activity at 1 µM (MLL3) | remaining activity at 10 µM (MLL3) | remaining activity at 1 µM (SUV420H1) | remaining activity at 10 µM (SUV420H1) |
| --- | --- | --- | --- | --- | --- | --- | --- | --- | --- | --- |
| CC1(C)O[C@@H]2[C@H](O1)[C@@H](CSCCCCNCc1cccc(-c3ccc(Cl)cc3)c1)O[C@H]2n1cnc2c(N)ncnc21 [SGC8158N] | 106% | 95% | 101% | 100% | 87% | 73% | 99% | 100% | 99% | 102% |
| Nc1ncnc2c1ncn2[C@@H]1O[C@H](CSCCCCNCc2cccc(-c3ccc(Cl)cc3)c2)[C@@H](O)[C@H]1O [SGC8158] | 19% | 4% | 7% | 0% | 97% | 84% | 105% | 105% | 96% | 87% |
